Assay results reported in patent US7271252B2, “Reagents for detecting efavirenz” (Roche Diagnostics Operations, Inc., priority 2003, dated 2007).
Where two headings read alike, the source gives them in different places.

Experiments:
HIV [1] = settings: cited from earlier work
HIV [2] = settings: cited from earlier work; remark: listed apart in the source
[3] = cited from earlier work
[4] = test system: serum antibodies raised against efavirenz-KLH conjugate; experiment: Competitive inhibition ELISA: binding of mouse serum antibody to N-linked BSA-efavirenz conjugate; design: species or system mice; settings: free drug, serum of one mouse, OD450, FIG. 3
Experimental: The sera were titered for antibody activity via an antigen specific ELISA. Wells of a styrene 96-well plate were coated with efavirenz N-linked BSA conjugate 5 by placing 50 μL of a 0.1 μg/mL efavirenz-BSA conjugate solution into 0.1 M potassium carbonate, pH 9.2, in the wells and incubating the covered plate at 37° C. for 1 hour. The solution was removed, and the wells were immediately filled with a post coat solution consisting of 1% gelatin hydrolysate, 2% sucrose, 0.1 M Tris buffer, pH 7.4, and 0.15% TWEEN 20 (all reagents from Sigma Chemical Co.), covered and incubated as above. Subsequently, the plates were rinsed once with 2% sucrose and air-dried. Once dry, the plates were sealed into aluminum foil clad plastic bags with a desiccant and stored at 4° C. until used.
Titering consisted of preparing an initial 1:100 dilution of the sera in PBS-T, then seven serial 1:3 dilutions. […] Color that developed was read in a microplate reader equipped with a 450 nm filter. The color intensities were plotted versus the final serum dilutions, and the dilution point at which 50% of the maximum reading was obtained was recorded.
For determining competitive inhibition, plates treated as above were used. […] Serum dilutions of twice the concentration determined above were then prepared, and 25 μL was placed into each well of the column. […]

[5] = taken with other anti-HIV medicines

SMILES: O=C1Nc2ccc(Cl)cc2[C@@](C#CC2CC2)(C(F)(F)F)O1 [efavirenz]
- virological failure, share of patients (HIV [1]; patients with low plasma levels of efavirenz, <1000 μg/L, 85 total patients): 50%
- virological failure, share of patients (HIV [1]; patients with plasma levels of efavirenz 1000-4000 μg/L or more than 4000 μg/L): 18-22%
- amount of HIV in the blood (viral load) (HIV [2]; efavirenz): lower the amount of HIV in the blood
- CD4 cell count (HIV [2]; [5]): increase their CD4 cell count
- patients' viral load (HIV [2]; [5]): reduce patients' viral load
- frequency of CNS toxicity at high versus mid plasma levels ([3]; efavirenz levels >4000 μg/L compared with 1000-4000 μg/L): approximately three times more frequent
- patients reporting central nervous system (CNS) side effects ([3]; human, in vivo): 20-40%
- patients who discontinue therapy because of severity or persistence of CNS side effects ([3]; human, in vivo): about 4%
- competitive inhibition of binding of serum antibodies to the drug conjugate absorbed to the microplate [4]: confers a competitive inhibition of binding
